Biological target: TLR4 (Homo sapiens, UniProt O00206)
Assay: Inhibition of the TLR4 signaling pathway / TLR4 binding
Experimental: These compounds were evaluated for inhibition of the TLR4 signaling pathway in vitro and in vivo.

Sequence of TLR4 (O00206 24-839, species assumed): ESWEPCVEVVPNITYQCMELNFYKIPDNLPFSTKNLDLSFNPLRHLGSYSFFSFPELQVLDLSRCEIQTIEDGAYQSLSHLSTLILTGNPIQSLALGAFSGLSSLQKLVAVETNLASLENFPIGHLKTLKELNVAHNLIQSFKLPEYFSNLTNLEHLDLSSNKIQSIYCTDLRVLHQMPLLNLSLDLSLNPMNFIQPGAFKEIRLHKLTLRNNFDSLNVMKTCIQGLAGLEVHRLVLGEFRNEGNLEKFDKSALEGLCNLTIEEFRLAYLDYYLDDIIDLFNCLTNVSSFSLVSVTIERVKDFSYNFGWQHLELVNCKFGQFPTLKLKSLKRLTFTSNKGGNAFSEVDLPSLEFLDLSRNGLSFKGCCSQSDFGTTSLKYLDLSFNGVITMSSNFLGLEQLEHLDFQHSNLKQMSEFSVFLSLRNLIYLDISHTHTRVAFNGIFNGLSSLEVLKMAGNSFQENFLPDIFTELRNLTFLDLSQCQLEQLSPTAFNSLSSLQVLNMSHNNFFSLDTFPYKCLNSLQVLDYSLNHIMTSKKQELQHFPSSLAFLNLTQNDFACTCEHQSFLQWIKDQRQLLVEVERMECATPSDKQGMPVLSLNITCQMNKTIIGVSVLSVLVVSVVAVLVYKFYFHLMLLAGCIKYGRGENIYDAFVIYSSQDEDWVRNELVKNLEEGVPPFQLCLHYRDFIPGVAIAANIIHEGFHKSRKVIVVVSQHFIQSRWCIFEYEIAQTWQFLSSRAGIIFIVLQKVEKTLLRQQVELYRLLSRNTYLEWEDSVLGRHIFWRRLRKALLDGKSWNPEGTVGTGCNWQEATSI

TLR4 binding: substantially inhibited TLR4 binding
Compound: CCOc1ccc(OCC(O)CN(C)Cc2c(C)nn(Cc3ccccc3Cl)c2C)cc1 (stereo not shown) [Compound A-1, 1-(((1-(2-chlorobenzyl)-3,5-dimethyl-1H-pyrazol-4-yl)methyl)(methyl)amino)-3-(4-ethoxyphenoxy)propan-2-ol]
